Assay results as given in patent publication US10206894B2, “Compounds for use in treatment of mucositis” (priority 2011, dated 2019).
Read-outs that look alike come from different tables or passages of the source.

Tested on: radiation-induced oral mucositis, left buccal cheek pouch
Format: in vivo
Conditions: for mean daily mucositis scores vs untreated control (Mann-Whitney Rank-sum), efficacy: topical three times per day
Description: In the irradiated hamster cheek pouch model of oral mucositis, the hamster cheek pouch is everted and irradiated to produce a localized mucositis. The progression and resolution of mucositis in the hamster model is very similar to that observed in the human condition and the model has been validated clinically with respect to dosing schedules of therapeutic agents (Murphy et al., Clin. Cancer Res., 2008, 14, 4292-4297; Alvarez et al., Clin. Cancer Res., 2003, 9, 3454-3461; and Schuster et al., J. Clin. Oncol., 2006, 24, 6537). Briefly, on day 0, all animals were given an acute radiation dose directed to their left buccal cheek pouch. Test articles were applied topically to the left pouch three times per day from day 0 to day 20 and mucositis was evaluated clinically starting on day 6, and continued on alternate days until […]. Study endpoints were mucositis score, weight change and survival. Mucositis was scored visually by comparison to a validated photographic scale. The scale ranges from 0 for normal, to 5 for severe ulceration. The clinical mucositis score of 3 in hamsters indicates the presence of an ulcer. In terms of the syndrome, it is believed that the dose-limiting chemotherapeutic- or radiation-induced pain is associated with frank ulceration; therefore a compound that prevents ulceration in the model might have utility in the clinical setting.
To evaluate mucositis severity, animals were anesthetized with an inhalation anesthetic, and the left cheek pouch everted. Mucositis was scored visually by comparison to a validated photographic scale. The scale ranges from 0 for normal, to 5 for severe ulceration. In descriptive terms, this scale is defined as follows: […]
A score of 1-2 is considered to represent a mild stage of injury, whereas a score of 3-5 is considered to indicate moderate to severe mucositis. In terms of the syndrome, it is believed that the dose-limiting chemotherapeutic- or radiation-induced pain is associated with frank ulceration; therefore a compound that prevents ulceration in the model might have utility in the clinical setting. In the hamster model, a clinical mucositis score of 3 indicates the presence of an ulcer and the duration of scores of 3 or greater is used as a primary measurement of efficacy in mucositis treatment. Ulceration is the point in the development of mucositis where the physical integrity of the oral mucosa is breached. In the clinic, a patient presenting with severe oral ulcerations may require hospitalization for analgesic, narcotic and/or antibiotic therapies or fluid support.
On day 0, all animals were given an acute radiation dose directed to their left buccal cheek pouch. This was accomplished by anesthetizing the animals and everting the left buccal pouch, while protecting the rest of the animals with a lead shield. Test agents were applied topically to the left buccal pouch three times per day from day 0 to day 20. Mucositis was evaluated clinically starting on day 6, and continued on alternate days until day 28. Study endpoints were mucositis score, weight change and survival. Mucositis was scored visually by comparison to a validated photographic scale. No treatment-related deaths were recorded throughout the study. The mean daily percent weight gains were similar in all groups and there were no apparent toxicities in any of the test agent treatment groups. Differences between the ulcerative severity in controls and the treated groups were assessed in two ways. First, mean daily mucositis scores for each group at each time-point were compared with the untreated control group using the Mann-Whitney Rank-sum analysis. […] At 0.3 mg/ml, efficacy was partial early in the treatment period.
Alternately, ulcerative severity differences between control and treatment groups were assessed by the comparison of the number of days with an ulcer (i.e., a score of 3 or higher) using a chi-squared (χ2) test.

## N=C(N)NCCCCC(=O)Nc1cc(C(F)(F)F)cc(NC(=O)c2cc(C(=O)Nc3cc(C(F)(F)F)cc(NC(=O)CCCCNC(=N)N)c3OC3CCNC3)ncn2)c1OC1CCNC1 (centres unmarked) [Compound X]
0.3 mg/ml, early in the treatment period
  mean daily mucositis scores vs untreated control (Mann-Whitney Rank-sum), efficacy: partial
1, 3 and 10 mg/ml groups, by Day 12 through Day 28
  mean daily mucositis scores vs untreated control (Mann-Whitney Rank-sum), efficacy: robust efficacy
1, 3 and 10 mg/ml/dose, p<0.001
  mucositis scores, number of days with an ulcer (score of 3 or higher), chi-squared test vs control: statistically significant improvements
1, 3 and 10 mg/ml/dose, vehicle control 42.7%
  treatment days with a clinical score ≥3: < 5%
Acute Radiation
  % reduction of animal days with OM scores ≥ 3: 90.6%-95.3%
Kleptose in the vehicle or with 1 mg/kg Compound X
  impact of Kleptose on the response (mucositis scores): did not significantly impact the response
Acute radiation model, oral rinse 3 times daily, 28 day treatment regimen
  daily mean mucositis scores and number of days animals exhibited ulceration: significantly reduced
hamster, in vivo
  adverse findings in weight gain, general behavior in the home cage, or clinical signs: no adverse findings
